{"source": "paper PMC2907371", "about": "“Antiviral biflavonoids from Radix Wikstroemiae (Liaogewanggen)” (Chinese Medicine, 2010)", "key": {"RSV (long strain, VR-26)": {"test_system": "RSV (long strain, VR-26)", "experiment": "CPE reduction assay, in vitro antiviral activity against RSV", "assay_type": "cell-based, respiratory syncytial virus", "conditions": "for anti-RSV activity (in words): in vitro; for IC50: human respiratory syncytial virus, concentration that reduced 50% of CPE in respect to virus control, RSV in HEp-2 cells, mean (SD), n = 3; for SI: ratio of CC50 to IC50", "method": "(§1) Human larynx epidermoid carcinoma cell line (HEp-2, CCL-23) and RSV (long strain, VR-26) were purchased from the American Type Culture Collection (ATCC, USA). The cells were grown in Eagle's minimum essential medium (EMEM) (Gibco, USA) supplemented with 10% fetal bovine serum (FBS) (Gibco, USA), 25 μg/ml gentamicin (Sigma, USA) and […] L-glutamine (Sigma, USA) (growth medium). Virus-infected cells were maintained in EMEM with 1% FBS, 25 μg/ml gentamicin and […] L-glutamine (maintenance medium). All the cells were cultured at 37°C in a humidified atmosphere supplied with 5% CO2. Virus titers were determined by the 50% tissue culture infective dose (TCID50) method.\nCPE reduction assay was adopted for screening the in vitro antiviral activity as described in the previous study. Briefly, 0.1 ml of 100 TCID50 virus suspension and serial two-fold dilutions of the tested samples were added simultaneously to confluent cell monolayers in a 96-well plate. Virus suspension and maintenance medium without samples were added as the virus control and cell control, respectively. The plates were incubated at 37°C in a humidified CO2 atmosphere for 3-5 days. The virus-induced CPE was scored against the virus control under a light microscope. Ribavirin (Sigma, USA) was used as positive control in this experiment."}, "[1]": {"experiment": "Cytotoxicity assay (MTT method)", "assay_type": "cell-based", "conditions": "human, concentration with half maximal inhibition on growth and survival of HEp-2 cells, mean (SD), n = 3", "method": "as §1\nCell viability was tested by the 3-(4,5-dimethylthiazol-2-yl)-2,5-diphenyl tetrazolium bromide (MTT) method as described in previous study. Briefly, 100 μl of two-fold diluted samples were added to a 96-well plate containing confluent cell monolayer in triplicates while the dilution medium without the sample was the control. After 72 hours of incubation, 12 μl of the MTT solution (5 mg/ml in phosphate buffered saline) was added to each well. The trays were further incubated for four hours for the formation of blue formazan. After the supernatant was removed, the blue formazan was solubilized in 100 μl DMSO and the optical density (OD) was measured at 570 nm with a microplate reader."}, "HIV-1": {"test_system": "HIV-1", "set-up": "method as in PMID 10985087", "conditions": "cited from earlier work"}}, "data": [{"smiles": "O=C1c2c(O)cc(O)cc2O[C@H](c2ccc(O)cc2)[C@H]1[C@@H]1C(=O)c2c(O)cc(O)cc2O[C@@H]1c1ccc(O)cc1", "note": "[Compound I, neochamaejasmin B]", "values": [{"measurement": "anti-RSV activity (in words)", "setting": "RSV (long strain, VR-26); CPE reduction assay", "value": "did not show anti-RSV effect"}, {"measurement": "anti-RSV activity (in words)", "setting": "RSV (long strain, VR-26); CPE reduction assay, listed as neochamaejasmin B", "value": "did not"}, {"measurement": "IC50 (symbol)", "setting": "RSV (long strain, VR-26); CPE reduction assay, highest concentration tested = maximal non-cytotoxic concentration", "value": "-"}, {"measurement": "CC50 at 72 h", "setting": "[1]", "value": 29.9, "unit": "µM"}]}, {"smiles": "O=C1c2c(O)cc(O)cc2O[C@@]12c1c(cc(O)c3c1O[C@H](c1ccc(O)cc1)[C@@H](O)C3)O[C@@H]2c1ccc(O)cc1", "note": "[genkwanol A]", "values": [{"measurement": "activity against HIV-1 in vitro (in words)", "setting": "HIV-1", "value": "moderately active"}]}, {"smiles": "COc1cc(C[C@@H]2COC(=O)[C@@]2(O)Cc2ccc(O)c(OC)c2)ccc1O", "note": "[(+)-nortrachelogenin]", "values": [{"measurement": "activity against HIV-1 in vitro (in words)", "setting": "HIV-1", "value": "moderately active"}]}, {"smiles": "O=C1C=C2O[C@@H](c3ccc(O)cc3)[C@]3(O)C(=O)c4c(O)cc(O)cc4O[C@]23C2=C1C[C@H](O)[C@@H](c1ccc(O)cc1)O2", "note": "[Compound II, genkwanol B]", "values": [{"measurement": "anti-RSV activity (in words)", "setting": "RSV (long strain, VR-26); CPE reduction assay", "value": "potent anti-RSV activity"}, {"measurement": "IC50", "setting": "RSV (long strain, VR-26)", "value": 9.6, "unit": "µM"}, {"measurement": "SI", "setting": "RSV (long strain, VR-26)", "value": 11.0}, {"measurement": "CC50 at 72 h", "setting": "[1]", "value": 106, "unit": "µM"}]}, {"smiles": "O=c1c(-c2c(O)cc(O)c3c2O[C@H](c2ccc(O)cc2)[C@@H](O)C3)c(-c2ccc(O)cc2)oc2cc(O)cc(O)c12", "note": "[wikstrol B]", "values": [{"measurement": "activity against HIV-1 in vitro (in words)", "setting": "HIV-1", "value": "moderately active"}]}, {"smiles": "O=C(c1c(O)cc(O)cc1O)c1c(-c2ccc(O)cc2)oc2cc(O)c3c(c12)O[C@H](c1ccc(O)cc1)[C@@H](O)C3", "note": "[daphnodorin B]", "values": [{"measurement": "activity against HIV-1 in vitro (in words)", "setting": "HIV-1", "value": "moderately active"}]}, {"smiles": "NC(=O)c1ncn([C@@H]2O[C@H](CO)[C@@H](O)[C@H]2O)n1", "note": "[Ribavirin, reference compound]", "values": [{"measurement": "IC50", "setting": "RSV (long strain, VR-26)", "value": 11.9, "unit": "µM"}, {"measurement": "SI", "setting": "RSV (long strain, VR-26)", "value": 21.6}, {"measurement": "CC50 at 72 h", "setting": "[1]", "value": 256, "unit": "µM"}]}, {"smiles": "O=C1C=C2O[C@H](c3ccc(O)cc3)[C@@]3(O)C(=O)c4c(O)cc(O)cc4O[C@@]23C2=C1C[C@H](O)[C@@H](c1ccc(O)cc1)O2", "note": "[Compound III, genkwanol C]", "values": [{"measurement": "anti-RSV activity (in words)", "setting": "RSV (long strain, VR-26); CPE reduction assay", "value": "potent anti-RSV activity"}, {"measurement": "IC50", "setting": "RSV (long strain, VR-26)", "value": 6.6, "unit": "µM"}, {"measurement": "SI", "setting": "RSV (long strain, VR-26)", "value": 21.9}, {"measurement": "CC50 at 72 h", "setting": "[1]", "value": 145, "unit": "µM"}]}, {"smiles": "O=C1C=C2O[C@H](c3ccc(O)cc3)[C@@]3(O)C(=O)c4c(O)cc(O)cc4O[C@@]23C2=C1C[C@@H](O)[C@@H](c1ccc(O)cc1)O2", "note": "[Compound IV, stelleranol]", "values": [{"measurement": "anti-RSV activity (in words)", "setting": "RSV (long strain, VR-26); CPE reduction assay", "value": "potent anti-RSV activity"}, {"measurement": "IC50", "setting": "RSV (long strain, VR-26)", "value": 10.2, "unit": "µM"}, {"measurement": "SI", "setting": "RSV (long strain, VR-26)", "value": 15.8}, {"measurement": "CC50 at 72 h", "setting": "[1]", "value": 162, "unit": "µM"}]}]}
